Assay results as given in US5055469A, “Quaternary pyridinium salts useful for ulcer treatment” (Hamari Chemicals, Ltd., priority 1988, dated 1991).

Tests used:
Slc:SD rats = experiment: Water-immersion stress ulceration method (antiulcer activity); assay type: in vivo, rat (male Slc:SD); conditions: 30 minutes before stress loading; for U.I. (ulcer index) Mean ± S.E.: non-treated control 13.4 ± 2.71
Experimental: After stress loading for 7 hours, the rats were killed through exsanguination, and the stomachs were removed, perfused in the inside with 10 ml of 2% formalin and then immersed in the same solution for 10 minutes for fixation. The stomachs were incised along the greater curvature, and the ulcers thus induced were measured for length under the stereoscopic microscope (magnification×10), whereby the total sum of the lengths was taken as an ulcer index (U.I., in mm). The test substance was given orally to rats in the form of a 4% gum arabic suspension 30 minutes before stress loading.

Acute toxicity = experiment: Acute toxicity; design: species or system mouse (male ddY); conditions: mouse, in vivo; mice, oral, single dose, observed for 7 days
Source text: A group of five male ddY mice (4-weeks aged) was used for testing.
The compound of Example 4 was suspended in 4% gum arabic solution to prepare a test pharmaceutical, which was given orally to each test animal once.

[1] = 30 mg/kg orally, test substance marked *p < 0.05

| SMILES | Inhibition rate (Slc:SD rats; 10 mg/kg orally) [%] | U.I. (ulcer index) Mean ± S.E. (Slc:SD rats; 10 mg/kg orally) [mm] | U.I. (ulcer index) Mean ± S.E. (Slc:SD rats; 30 mg/kg orally) [mm] | Inhibition rate (Slc:SD rats; [1]) [%] | Inhibition rate (Slc:SD rats; 100 mg/kg orally, marked **p < 0.01) [%] | U.I. (ulcer index) Mean ± S.E. (Slc:SD rats; 100 mg/kg orally) [mm] | LD50 at 168 h (Acute toxicity) [mg/kg] |
| --- | --- | --- | --- | --- | --- | --- | --- |
| Cc1ccc(Nc2ccccc2NC(=O)C[n+]2ccccc2)cc1.[Cl-] [Example 4, 1-[2-[[2-[(4-methylphenyl)amino]phenyl]amino]-2-oxoethyl]pyridinium chloride] | 19.0 | 10.8 ± 3.15 | 3.3 ± 1.82 | 75.1 | 90.0 | 1.3 ± 0.88 | ≥ 2000 |
| CN/C(=N/CCSCc1nc[nH]c1C)NC#N [Cimetidine, reference compound] |  |  | 5.2 ± 3.40 | 61.4 |  |  |  |
